Laboratory results published in article PMC6030159 (Scientific Reports, 2018).
pIC50: −log10 of the molar value.

Columns and labels:
[1] = system: MYCN-non-amplified neuroblastoma cells (SK-N-F1, SK-N-AS, SK-N-RA); experiment: Resazurin growth assay, MYCN-non-amplified neuroblastoma cell lines; format: cell-based
Text: HEK293A, MCF7, MDA-MB231, SK-N-F1, SK-N-RA, SK-N-AS, COS-7, HeLa, BJ cells, and Rat1 fibroblasts TGR-1 (wt), HO15.19 (MYC knockout) and HOmyc3 (MYC reconstituted HO15.19) were maintained in DMEM. The neuroblastoma cell lines Kelly, IMR-32 and SK-N-DZ, and the Burkitt’s lymphoma cell lines Mutu, Daudi and ST486 were kept in RPMI. SK-N-BE(2) cells were maintained in a 1:1 mixture of EMEM and F12 media, supplemented with 1% non-essential amino acid solution (NEAA) and 0.5% Glutamine. U2OS-MYC-ER cell lines were cultured in phenol-red free DMEM and treated with 100 nM 4-hydroxytamoxifen (HOT) (Sigma-Aldrich) to activate MYC-ER. IMR-90 was maintained in MEM. […]
Cell proliferation assays. Cell growth and viability was estimated in triplicates with WST-1 (Roche) or Resazurin sodium salt (Sigma-Aldrich) assays in medium at 37°C and 5% CO 2 for 2 hours after which absorbance or fluorescence, respectively, was measured with an Omega Fluostar (BMG Labtech) in a 96 well plate format. […] Images were taken in the green (FITC) and blue (DAPI) channels using a fluorescence microscope (ImageXpress Micro, Molecular Devices). […] After 16 days, the colonies were stained with 100 µg/ml MTT (Sigma) overnight and colonies were counted.
Immunohistochemistry. […] For quantification, areas with positive TUNEL and Ki67 staining were measured using Image J software. […]

MYCbHLHZip:MAXbHLHZip = molecular target: T1, MYCbHLHZip:MAXbHLHZip (Homo sapiens, UniProt P01106); experiment: SPR MYC:MAX heterodimer formation assay; format: binding; details: 100 nM MYCbHLHZip over immobilized MAXbHLHZip
T1 construct: 6xHis (N); made in house; host or cells: E. coli BL21 (DE3), pET28a
T1 sequence (P01106 367-447 limits assumed): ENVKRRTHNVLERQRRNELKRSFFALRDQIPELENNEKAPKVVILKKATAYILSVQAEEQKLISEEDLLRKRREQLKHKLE
Procedure: The SPR method is a highly sensitive assay to determine the affinity between protein and ligand and to measure the kinetics of the interaction. In the SPR MYC:MAX interaction assay, MAXbHLHZip was covalently attached onto a sensor chip and MYCbHLHZip pre-mixed with compound was injected over the surface and thereafter allowed to dissociate.
The SPR experiments were performed at 25 °C using a Biacore T200 (GE Healthcare) instrument kindly provided by SciLifeLab Solna. An amino coupling procedure was used to immobilize protein on a CM5 sensor chip (GE Healthcare). Sensorgrams were generated by subtraction of the reference (blank immobilized) surface. All details will be described in Castell et al. (manuscript in preparation). In general, for the MYC:MAX interaction assay, 200–500 RU of MAXbHLHZip was immobilized and 100 nM MYCbHLHZip pre-incubated with compound in PBS supplemented with 0.05% Tween-20 and 1% DMSO was injected with a flow rate of 30 µl/min and allowed to dissociate. MAX was regenerated by injection of PBS buffer supplemented with Urea.

p53 core protein = system: T2, p53 core protein; experiment: SPR binding to p53
T2 construct: Truncated p53 core protein was a kind gift from Klas Wiman; gift from Klas Wiman, CCK, Karolinska Institutet
Procedure: The MYC SPR assay was carried out as described above with MYCbHLHZip immobilized to a level of 800–1000 RU. For kinetic binding experiments, a Langmuir 1:1 binding event was applied using the Biacore T200 Evaluation Software 2.0 (GE Healthcare) to determine association (ka) and dissociation (kd) constants of the compound and to calculate affinity (KD) by the formula; KD = kd/ka. Binding responses from equilibrium binding experiments were plotted against compound concentration and KD values were determined at 50% of the theoretical Rmax with the formula Rmax = (MW analyte/MW ligand) × immobilized ligand level on the chip (RU) × stoichiometry (1:1). Same coupling method described above was used to immobilize the control proteins. MAX was immobilized to approximately 2000 RU, MAD to 600 RU, BSA to 1000 RU, p53 to 3000 RU and BCL-XL, to 500 RU.

MYC bHLHZip = molecular target: T3, MYC bHLHZip (Homo sapiens, UniProt P01106); experiment: MST direct binding to MYC
T3 construct: 6xHis (N); made in house; host or cells: E. coli BL21 (DE3), pET28a; purified in denaturing conditions
T3 sequence (P01106 367-447 limits assumed): as above
Procedure: To determine whether MYCMI-6 binds directly to MYC (or MAX), MST and SPR were applied. The bHLHZip domains of MYC or MAX, respectively (Suppl. Fig. S1C), were titrated and mixed with 3 μM of MYCMI-6.
MST was carried out on a Monolith NT.115 with blue/green filters, kindly provided by Luca Jovine, Karolinska Institutet Huddinge, according to manufacturer’s protocol (NanoTemper). MYCbHLHZip, MAXbHLHZip, BSA and BCL-XL recombinant proteins and compounds were diluted and titrated in PBS supplemented with 0.05% Triton-X-114 or 0.05% Tween-20. Titration of molecules was carried out in 16 PCR tubes into which a fixed concentration of fluorescent molecule was added. The mixture was applied to capillaries (standard treated, NanoTemper), and scanned in the Monolith NT.115 to measure initial fluorescence of molecule. MST was induced and fluorescence was measured during 40 seconds. Double measurements were carried out (MST power of 20% and 40%, or 40% and 60%) for each sample. Delta fluorescence or relative fluorescence of fluorescent molecule normalized to control vehicle was plotted against titrated molecule concentration. The protein labeling kit GREEN-NHS (NanoTemper) was used to label primary amines of proteins according to manufacture’s protocol.

What does the source list for `CCOc1ccc2nc3cc(/N=N/c4ccc(N)nc4N)ccc3c(N)c2c1` [MYCMI-6]?
GI50 ([1]; Homo sapiens, SK-N-AS, 48 hours, resazurin): ≥ 20 µM; response of SK-N-F1 cell line ([1]; SK-N-F1, 48 hours): essentially did not respond at all; pIC50 (MYCbHLHZip:MAXbHLHZip): 5.42; binding to p53 (SPR) (p53 core protein): negligible; binding to MYC bHLHZip (MST) (MYC bHLHZip; 3 μM MYCMI-6, changes at 1–15 μM of MYC): binding of MYCMI-6 to MYC; concentration showing relative changes in thermophoresis of labeled MYC (reverse MST) (MYC bHLHZip; labeled MYC approximately 200 nM, MYCMI-6 titrated): above 100 nM
